Common to all, as to assay type: in vivo, Sprague-Dawley rats
In data set [1] the test system is urethane anesthetized rat. Briefly: Heart rate recording. The settings on record: IRL-1620 5 μg/kg, i.v. after saline; ET-1 with or without pretreatment. How it is done:
(§1) Male Sprague-Dawley rats weighing 323±4 grams (g) were anesthetized with urethane (ethyl carbamate, Sigma Aldrich, St. Louis, Mo.) dissolved in isotonic saline (0.9% NaCl, Hospira, Inc., Lake Forest, Ill.). The rats were administered a dose of 0.15 g per 100 g body weight via intraperitoneal (i.p.) injection.
(§2) Blood Pressure and Heart Rate: The femoral vein and artery were cannulated. The arterial cannula was connected to a Gould P23 ID pressure transducer for recording the blood pressure on a Grass P7D polygraph through a 7PI preamplifier. The heart rate was recorded through a 7P4B Grass tachograph, triggered from blood pressure signals. Drugs were administered via the venous cannula.
(§3) The rats were randomly selected for various studies. Following surgery the rats were allowed to stabilize for 30 minutes and a 15 minutes baseline recording of all parameters (blood pressure, heart rate, cerebral blood flow, and renal blood flow) was obtained prior to the administration of the pretreatment followed by IRL-1620 (Suc-[Glu 9, Ala 11,15], American Peptide Co, Inc., Sunnyville, Calif.) or ET-1 (Ala 1,3,11,15, RBI Sigma, Natick, Mass.). BQ-788, a selective endothelin B antagonist, is the sodium salt of N-cis-2,6-dimethylpiperidinocarbonyl-L-gamma-methylleucyl-D-1-methoxycarbonyl triptophanyl-DNIe (see Proc. Natl. Acad. Sci. USA, 91, pp. 4892-4896 (1994)) BMS is BMS 182, 874, which is a selective endothelin A antagonist having a structure
(§4) Group 1: Animals (n=4) were pretreated with saline 15 minutes (min) prior to administration of IRL-1620 (5 μg/kg, i.v.).
(§5) Group 2: Animals (n=4) were pretreated with BMS (5 mg/kg, i.v.) 15 min prior to administration of IRL-1620 (5 μg/kg, i.v.).
(§6) Group 3: Animals (n=4) were pretreated with BMS (15 mg/kg, i.v.) 15 min prior to administration of IRL-1620 (5 μg/kg, i.v.).
Group 4: Animals (n=4) were pretreated with BQ788 (1 μg/kg, i.v.) 15 min prior to administration of IRL-1620 (5 μg/kg, i.v.). […]
(§7) Blood pressure, heart rate, cerebral blood perfusion, and renal blood perfusion all were recorded for 2 hours following the final injection. Blood gases were analyzed prior to administration of any drugs, and at 60 and 120 min following administration of IRL-1620 or ET-1. At the end of each experiment, the animals were euthanized with an overdose of urethane i.v. In the figures, all data values are presented as mean±SEM. One-sample t-tests and one-way ANOVAs were used to test the differences within and between the groups. A P value of P<0.05 was considered significant.

Data set [2] deals with urethane anesthetized rat. Briefly: Arterial blood gas analysis. The following applies: IRL-1620 5 μg/kg, i.v., ET-1 0.75 μg/kg. How it is done:
as §1
Blood Gas Analysis: Arterial blood gases were monitored to determine the effects on pH, pCO2, and pO2. Blood was drawn from the arteriole cannula and analyzed using a GEM Premier 3000 unit (Instrument Laboratory, Lexington, Mass.).
as §7

In data set [3] the test system is urethane anesthetized rat. Description: Cerebral blood perfusion by Laser Doppler Flowmetry. The following applies: ET-1 0.75 μg/kg, i.v.; FIG. 5. As to the method:
as §1
Cerebral Perfusion: A burr hole was drilled into the rat skull about 2 millimeters (mm) to the left of midline. Cerebrovascular perfusion was measured via a fiber optic probe (PF407) applied to the surface of the rat brain. The probe was connected to a Periflux PF2b 4000 Laser Doppler Flowmetry unit (Perimed, Stockholm, Sweden).
as §3, §4, §5, §6
(§8) Group 4: Animals (n=4) were pretreated with BQ788 (1 μg/kg, i.v.) 15 min prior to administration of IRL-1620 (5 μg/kg, i.v.).
(§9) Group 1: Animals (n=4) were pretreated with saline 15 min prior to administration of ET-1 (0.75 μg/kg, i.v.).
(§10) Group 2: Animals (n=4) were pretreated with BMS (5 mg/kg, i.v.) 15 min prior to administration of ET-1 (0.75 μg/kg, i.v.).
(§11) Group 3: Animals (n=4) were pretreated with BMS (15 mg/kg, i.v.) 15 min prior to administration of ET-1 (0.75 μg/kg, i.v.).
(§12) Group 4: Animals (n=4) were pretreated with BQ788 (1 μg/kg, i.v.) 15 min prior to administration of ET-1 (0.75 μg/kg, i.v.).
as §7

Data set [4] has as its system urethane anesthetized rat. Description: Renal blood perfusion by Laser Doppler Flowmetry. The settings on record: IRL-1620 5 μg/kg, i.v., ET-1 0.75 μg/kg, FIG. 8. As to the method: as §1
Renal Perfusion: The right kidney was dissected retroperitoneally. Renal perfusion was measured via a fiber optic probe (PF408) applied to the surface of the rat kidney. The probe was connected to a Periflux PF2b 4000 Laser Doppler Flowmetry unit (Perimed, Stockholm, Sweden).
as §3, §4, §5, §6, §8, §9, §10, §11, §12, §7

Data set [5] has as its system urethane anesthetized rat. Description: Blood pressure / mean arterial pressure recording. The settings on record: i.v., ET-1 0.75 μg/kg, FIG. 11; for decrease in mean arterial pressure: IRL-1620 5.0 μg/kg. As to the method:
as §1, §2, §3, §4, §5, §6, §8, §9, §10, §11, §12, §7

[6] abbreviates: time 0 min (prior to any drugs).

With “ET-1: endothelin-1 (ET-1), a 21-amino acid peptide (ASASSLMDKEAVYFAHLDIIW)”, in data set [1], the “effect on heart rate (Table 1)” value is “No significant alteration”. The “effect on arterial blood gases (text to Table 2)” value in data set [2] is recorded as “Neither IRL-1620 nor ET-1 significantly affected blood gases”. Also, the “arterial blood pCO2” value is listed as 34 ± 3 in data set [2] (setting [6]), 40 ± 4 in data set [2] (time 60 min) and 38 ± 4 in data set [2] (time 120 min). The “arterial blood pH” value in data set [2] (setting [6]) came to 7.32 ± 0.01; in data set [2] (time 60 min), 7.29 ± 0.01; in data set [2] (time 120 min), 7.27 ± 0.01. Also, the “arterial blood pO2” value in data set [2] (setting [6]) is given as 118 ± 4; in data set [2] (time 60 min) it was 110 ± 2; in data set [2] (time 120 min), 116 ± 5. In data set [3], the “change in cerebral blood flow” value is “no significant change”. For the same substance, the “persistence of the decrease in renal blood flow” value in data set [4] is reported as “approximately 15 minutes”. Besides, the “decrease in renal blood flow” value amounted to 40.27% in data set [4] (at 1 minute), 50.10% in data set [4] (at 5 minutes) and 26.33% in data set [4] (at 10 minutes). The “decrease in mean arterial pressure” value was 43.16% in data set [5] (at 0.2 minute), 37.80% in data set [5] (at 0.5 minute) and 19.30% in data set [5] (at 1 minute). Moreover, the figures for the “increase in mean arterial pressure (subsequent hypertension)” value in data set [5] (at 5 minutes), in data set [5] (at 10 minutes) and in data set [5] (at 15 minutes) were 12.72%, 25.56% and 28.49%, respectively.

Values taken from patent US9493524B2, “Methods for treatment of stroke or cerebrovascular accidents using an ETB receptor agonist” (MIDWESTERN UNIVERSITY, priority 2007, dated 2016).
